# In patent US7704502B2, “Combinations of antibodies selective for DR5 and other therapeutic agents” (The UAB Research Foundation, priority 2000, dated 2010):
# Residues, ends and D or L forms follow the SMILES beside them. *: point of attachment. Cbz = O=C(OCc1ccccc1)*; CH2F = FC*
# B1: Fas ligand: soluble Fas ligand used with enhancer/crosslinker (protein, UniProt P48023 103-281, looked up)
# extracellular domain: QLFHLQKELAELRESTSQMHTASSLEKQIGHPSPPPEKKELRKVAHLTGKSNSRSMPLEWEDTYGIVLLSGVKYKKGGLVINETGLYFVYSKVYFRGQSCNNLPLSHKVYMRNSKYPQDLVMMEGKMMSYCTTGQMWARSSYLGAVFNLTSADHLYVNVSELSLVNFEESQTFFGLYKL
# modifications: extracellular domain
# notes: soluble Fas ligand used with enhancer/crosslinker
# Assays:
# [1] = test system: MMP-1, 3, and 13; experiment: Production of MMPs by RA synovial cells (ELISA); type: cell-based, human; details: overnight; 50 ng/ml interleukin 1b, 10 ng/ml TNF-a, 50 ng/ml TRAIL or TRA-8; vs medium control
# Method: Thus, it is possible that TRAIL, like TNF-α, may serve as a pro-inflammatory cytokine. […] The levels of the MMP-1 and MMP-3 in the culture supernatants are determined by the ELISA kits.
# [2] = test system: NF-κb; experiment: Gel-shift assay of NF-κb activation in RA synovial cells; type: cell-based, human; details: 50 ng/ml TRAIL, Fas ligand or TRA-8; 20 ng/ml TNF-a
# Method: There is considerable evidence to support the concept that there are close links between the signaling of apoptosis and the signaling of proliferation (45). It has been established that DR5 is able to activate a NF-kb pathway in addition to apoptosis signaling transduction, and that NF-κb activation may be able to transduce an anti-apoptosis signal. Therefore a gel-shift assay is carried out. […] The nuclear extracts are prepared and incubated with the […] [^32P]-labeled oligo-DNA probe. The results are analyzed using the cyclone phospha-imager (TopCount NXT, Packard Instrument Company, CT).
# [3] = test system: Jurkat cells; experiment: Jurkat cell viability after overnight culture (ATPLite, MTT, PI exclusion); type: cell-based, human; details: 50 ng/ml TRA-8 overnight plus caspase inhibitor
# Method: Cell viability is determined using (1) the ATPLite® kit according to the manufacturer's instructions (Packard Instruments, Meriden, Conn.); (2) the MTT Cell proliferation/viability kit (Sigma); or (3) PI staining of dead cells and analyzed by flow cytometry. At end of culture, cells are stained with 10 μg/ml PI and PI negative cells are gated as viable cells. For analysis of condensed nuclei of hepatocytes, cells are stained with 10 ng/ml Hoechst 33352 (Molecular Probes) and analyzed by flow cytometry.
# [4] = test system: 2LMP human breast cancer xenografts; experiment: TRA-8 therapy alone or with chemotherapy or radiation, breast cancer xenografts; type: in vivo, athymic nude mice
# Method: Athymic nude mice were injected s.c. with 3×10^7 2LMP cells. […] The growth of tumors was monitored over time. […] Tumor size and regression rates were determined.
# Data from 6 independent experiments were analyzed by individual experiment. Treatment combinations were compared with respect to in vivo anti-tumor efficacy, i.e., inhibition of tumor growth, which was measured as three endpoints; extension of tumor doubling times, percentage of tumor regressions, and growth rates over time. The actual number of days at which the tumor doubled in surface area (product of two diameters) relative to baseline on day 7 after tumor cell injection was used in the doubling time analysis. The nonparametric Kruskal-Wallis test was used for median tumor doubling time comparisons between treatments. Fisher's exact test was used to compare the proportions of tumor regressions and relapse-free regressions across treatment groups. To determine if any combination therapy produced significant synergistic inhibition of tumor growth, i.e., more than additive, the growth curves from the serial area measurements were compared using a linear mixed model approach over the first 3 weeks after start of therapy (Lindsey, J. K. Models for Repeated Measurements, pp. 100-142, Oxford, 1993). To test for synergistic effects of the combination therapies, an interaction term was included in the model. If the interaction term was significant and the effect was inhibition of growth at a rate greater than additive then the interaction was considered synergistic.
# A total of 166 animals, 10 treatment groups, and 6 independent experiments were included in the aggregate analysis. Treatment combinations were compared with respect to in vivo anti-tumor efficacy. The median tumor doubling times were analyzed using the Kruskal-Wallis test and Fisher's exact test was used to compare the proportions of tumor regressions and relapse-free regressions across treatment groups.
# [5] = test system: 2LMP xenografts; experiment: Analysis of apoptosis in xenografts (TUNEL); type: in vivo, athymic nude mice; details: day 14
# Method: One group of mice was untreated. The xenografts were dissected for the study of apoptosis on day 14 after tumor cell injection. The reason for the substantial reduction in treatment intensity compared to our standard treatment protocol was to allow adequate tumor tissue for analysis on day 14. Tunel assay for apoptosis in tumor xenografts was performed as follows. Five-micron paraffin sections of tissue were mounted on Superfrost/Plus slides and heated at 58° C. for 1 h. Tissue sections were deparaffinized in three changes of xylene and rehydrated with one change of absolute ethanol, 95% ethanol, and 70% ethanol, each in 5-min increments. Then, the sections were placed in Tris-buffered saline (0.5M Tris base, 0.15 M NaCl, 0.0002% Triton X-100™, pH 7.6). Apoptotic nuclei were detected using an Apop Tag Peroxidase kit (Intergen, Purchase, N.Y.). Proteinase K (20 μg/ml in distilled deionized H2O) was added to the tissue specimens and incubated at room temperature for 15 min. Endogenous peroxidases were quenched with an aqueous solution of 3% hydrogen peroxide for 5 min. Sections were treated with an equilibration buffer for 30 min and then incubated with the TdT/enzyme (diluted in labeling reaction mix) for 1 h at 37° C. using parafilm covers. During this incubation, the TdT enzyme binds the 3′-OH ends of DNA fragments and catalyzes the addition of digoxigenin-labeled and unlabeled deoxynucleotides. Negative controls were incubated with distilled H2O (diluted in labeling reaction mix) instead of the TdT enzyme. A stop buffer was added for 10 min at room temperature to terminate the labeling reaction. An anti-digoxigenin conjugate was added to each slide for 30 min. The chromagen 3,3′ DAB was used to visualize the labeled 3′ OH end of DNA fragments. The slides were then rinsed in deionized water and lightly counterstained with hematoxylin, dehydrated using graded alcohols and xylene and coverlsipped using Permount. Approximately 10 random fields were evaluated for percentage of Tunel stained and percentage of intensely stained apoptotic bodies throughout the tissue.
# [6] = test system: normal human hepatocytes; experiment: Hepatocellular toxicity, cell viability (ATPLite); type: cell-based; details: Fas-mediated apoptosis, 6 hours
# Source text: For 24-hour cell viability assays, fresh normal human hepatocytes in 96-well plates were purchased from In Vitro Technology (Baltimore, Md.). […] For 6-hour viability assays, normal hepatocytes or hepatocellular cancer cells are isolated from fresh surgical specimens collected from UAB Tissue Procurement Center. All reagents for isolation of human hepatocytes including hepatocytes perfusion buffer, digest medium, washing medium, and attachment medium were purchased from Gibco. The tissue slides are digested in the Hepatocyte Digest Medium at 37° C. with shaking (50 rpm) for one hour. The isolated hepatocytes are harvested by low speed centrifugation (50 g, 3 min), and washed with the Hepatocyte Washing Medium six times. Single cell suspension of hepatocytes are cultured in the Attachment Medium containing 10% FCS in 96-well Matrigel plates (BD) for six hours. Non-attached hepatocytes are removed by twice washing with pre-warmed attachment medium.
# [7] = aggregate of 6 experiments, number of animals (%)
# [8] = aggregate of 6 experiments, relative to day 7
molecule,measurement,setting,value
IL-1b: proinflammatory cytokine,production/release of MMPs,[1],increased
TNF-α,production/release of MMPs,[1],increased
same,NF-κb activation,[2],activated in a time-dependent fashion
CC(NC(=O)C(NC(=O)OCc1ccccc1)C(C)C)C(=O)NC(CC(=O)O)C(=O)CF (stereo not drawn) [Z-VAD] (Cbz-Val-Ala-Asp-CH2F; configuration not given here),inhibition of TRA-8-induced cell death,[3],completely inhibited
"COc1cccc2c1C(=O)c1c(O)c3c(c(O)c1C2=O)C[C@@](O)(C(=O)CO)C[C@@H]3O[C@H]1C[C@H](N)[C@H](O)[C@H](C)O1 [Adriamycin, adriamycin (doxorubicin)]",Complete Regressions No relapse (%),[4]; [7],0
same,Complete Regressions Total (%),[4]; [7],0
same,Tumor Doubling Time (mean),[4]; [8],17 days
same,Tumor Doubling Time (median),[4]; [8],18 days
same,inhibition of tumor growth compared to untreated controls,"[4]; individual experiments, TRA-8 200 μg i.p. x6, adriamycin 6 mg/kg, paclitaxel 20 mg/kg, 3 Gy 60Co, Kruskal-Wallis on doubling times",did not differ from controls
same,TUNEL stained cells,"[5]; 100 μg TRA-8 days 7, 10, adriamycin 3 mg/kg or paclitaxel 10 mg/kg days 8, 11, untreated 4%",8%
same,intensely stained cells,"[5]; same regimen, untreated 1%",6%
B1,"difference in susceptibility among normal hepatocytes, hepatocellular carcinoma cells, and HepG2 cells",[6],no significant difference
same,NF-κb activation,[2],unable to induce
